# Experimental data as given in BindingDB's records for doi:10.1016/j.bmc.2008.10.023 (Polymer Functionalization Group (Ictp, Csic), 2008).
# Molecular target: Peroxisome proliferator-activated receptor alpha (Homo sapiens) (UniProt Q07869)
# Test: Agonist activity at human PPARalpha expressed in human MCF7 cells coexpressing TIF2 by luciferase reporter gene assay
# Sequence of Peroxisome proliferator-activated receptor alpha (Homo sapiens) (Q07869 whole entry, looked up): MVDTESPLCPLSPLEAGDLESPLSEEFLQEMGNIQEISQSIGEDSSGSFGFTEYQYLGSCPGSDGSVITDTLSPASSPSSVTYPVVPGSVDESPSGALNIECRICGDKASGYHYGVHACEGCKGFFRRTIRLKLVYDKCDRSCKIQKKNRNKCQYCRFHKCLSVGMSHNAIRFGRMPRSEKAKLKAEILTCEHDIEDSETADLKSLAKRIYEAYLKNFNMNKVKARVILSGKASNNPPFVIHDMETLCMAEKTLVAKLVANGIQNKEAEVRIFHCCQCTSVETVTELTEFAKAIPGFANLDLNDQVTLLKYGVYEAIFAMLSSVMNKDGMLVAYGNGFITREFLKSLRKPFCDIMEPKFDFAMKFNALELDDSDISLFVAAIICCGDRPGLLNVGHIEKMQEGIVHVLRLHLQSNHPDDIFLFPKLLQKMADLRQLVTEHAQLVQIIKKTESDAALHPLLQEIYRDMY
row,SMILES,EC50 [nM]
1,CCCCCCCCCCCCCCCCNC(=O)c1nn(-c2ccc(Cl)cc2Cl)c(-c2ccc(Cl)cc2)c1C,> 10000
2,CCCCCCCC/C=C\CCCCCCCCNC(=O)c1cc(-c2ccc(Cl)cc2)n(-c2ccc(Cl)cc2)n1,524
3,CCCCCCCCCCCCCCCCNC(=O)c1cc(-c2ccc(Cl)cc2)n(-c2ccc(Cl)cc2Cl)n1,> 10000
4,CCCCCCCC/C=C\CCCCCCCCNC(=O)c1cc(-c2ccc(Cl)cc2)n(-c2ccc(Cl)cc2Cl)n1,223
5,CCCCCCCC/C=C\CCCCCCCCNC(=O)c1nn(-c2ccc(Cl)cc2Cl)c(-c2ccc(Cl)cc2)c1C,467

# The remaining lines, values ahead:
row,EC50 [nM],SMILES
1,> 10000,CCCCCCCCCCCCCCCCNC(=O)c1cc(-c2ccc(Cl)cc2)n(-c2ccc(Cl)cc2)n1
2,183,CCCCCCCC/C=C\CCCCCCCCNC(=O)c1cc(-c2ccc(Cl)cc2)n(-c2ccccc2)n1
3,> 10000,CCCCCCCCCCCCCCCCNC(=O)c1cc(-c2ccc(Cl)cc2)n(-c2ccccc2)n1
